Assay results as given in patent publication US4771070A (Warner-Lambert Company, priority 1986, dated 1988).
Values after ≈ are worked out from the molar mass of the structure shown. Where a name gives a salt, the structure may show the parent alone. Read-outs that look alike come from different tables or passages of the source.

Assays:
[1] = type: physicochemical
Procedure: After addition of the base solution, a white suspension formed, and some material coagulated on the walls of the solution container.
The resulting solution was concentrated to a final volume of about 2 ml on a rotary evaporator and then diluted to 40 ml with water. Two-milliliter aliquots of this solution were added to each of several 6-ml vials.
The solution was concentrated in vacuo to remove methanol and diluted to 10 ml for lyophilization. The lyophilized solid is white and powdery.

[2] = tested on: L1210 mouse leukemia cells; assay: Cytotoxicity of CL-1957A in vitro; type: cell-based; details: read-out: ID50 (the source's name)
Excerpt: (§1) The ID50 values appear in Table XII.

[3] = tested on: human colon adenocarcinoma cells; assay: Cytotoxicity of CL-1957A in vitro; type: cell-based; details: read-out: ID50 (the source's name)
Excerpt: as §1

[4] = type: physicochemical; details: for Percent Remaining After One Week: 168 h
Procedure: The thin-film preparations which resulted were assayed for stability by comparing the purity of the film against a standard sample by HPLC techniques.

B16 Melanoma = assay: In vivo activity of CL-1957A against B16 Melanoma in mice; details: ratio of median life span
Excerpt: The activity of the compound against B16 melanoma is presented in Table XIV in terms of % T/C values which represents the ratio of median life span in days of treated mice to untreated mice, expressed as a percentage.

Proteus vulgaris = assay: Antimicrobial activity of CL-1957A, paper disc growth inhibition zone; type: cell-based; details: 16 h, PD 05062, PAS medium, read-out: Diameter of Inhibition Zone
Procedure: (§2) The disc and inoculated medium were incubated for 16 hours at 37° C. and the diameter of the resulting growth inhibition zone, if any, was measured.

Branhamella catarrahalis = assay: as above; type: cell-based; details: 16 h; PD 03596, CAP medium, 500 μg/ml; read-out: Diameter of Inhibition Zone
Procedure: as §2

Staphylococcus aureus = assay: as above; type: cell-based; details: 16 h, read-out: Diameter of Inhibition Zone; for zone of inhibition at 10 µg/mL: 10 μg/ml; for zone of inhibition at 500 µg/mL: 500 μg/ml; for zone of inhibition at 100 µg/mL: 100 μg/ml
Procedure: as §2

Alcaligenes viscolactis = assay: as above; type: cell-based; details: ATCC21698, 16 h, ATCC 21698, Mycin medium, 500 μg/ml, read-out: Diameter of Inhibition Zone
Procedure: as §2

Xanthomonas phaseoli = assay: as above; type: cell-based; details: 16 h, PD 06002, CMA medium, read-out: Diameter of Inhibition Zone
Procedure: as §2

Bacillus subtilis = assay: as above; type: cell-based
Procedure: as §2

Micrococcus luteus = assay: as above; type: cell-based; details: 16 h, PD 05064, PAS medium, read-out: Diameter of Inhibition Zone
Procedure: as §2

physchem = type: physicochemical
[5] = tested on: Ridgeway Osteogenic Sarcoma; assay: In vivo activity of CL-1957A against Ridgeway Osteogenic Sarcoma in mice
Procedure: Male AKR mice were pooled, inoculated subcutaneously by trocar with 30-60 mg fragments of Ridgeway Osteogenic Sarcoma, repooled, and randomly distributed to treatment groups on Day 0.
Appropriate mice received intrapertioneal injections of the test compound dissolved in 0.9% sodium chloride solution on Days 2, 6, and 10, and then weekly thereafter. Tumors were measured on Days 24 and 35. The results are presented in Table XIII as % T/C (as defined below). % T/C values of less than 40 on Day 35 are considered active. [formula]

P388 leukemia = assay: In vivo activity of CL-1957A against P388 leukemia in mice

CCC(C=CC1OC(=O)C=CC1C)=CC(C)CC=CC(C)=CC(C)C(=O)C(C)C(O)C(C)CC(C)=CC(=O)O (stereo not drawn) [calcium salt of CL-1957A]
solubility in ethanol [1]: soluble in ethanol | solubility in water [1]: insoluble in water

CCC(C=CC1OC(=O)C=CC1C)=CC(C)CC=CC(C)=CC(C)C(=O)C(C)C(O)C(C)CC(C)=CC(=O)O (stereo not drawn) [CL-1957A, 19-(3,6-dihydro-3-methyl-6-oxo-2H-pyran-2-yl)-17-ethyl-6-hydroxy-3,5,7,9, 11,15-hexamethyl-8-oxo 2,10,12 16,18-nonadecapentaenoic acid]
IC50 [2]: 0.118 ng/mL (≈ 0.218 nM) | IC50 [3]: 0.02 ng/mL (≈ 0.037 nM) | stability of ascorbate-containing thin-film preparation [4]: began to show some decomposition | stability of solid preparations of the pure compound [4]: insufficiently stable for pharmaceutical use | stability of thin-film preparations [4]: not stable for periods of even one week | Percent Remaining After One Week ([4]; solid cake from 1,1-dimethylethanol): 56% | Percent Remaining After One Week ([4]; thin film from 95% ethanol): 40% | Percent Remaining After One Week ([4]; thin film from abs. ethanol): 60% | % T/C (B16 Melanoma; 0.075 mg/kg/injection i.p. Days 1, 5, 9): 201% | % T/C (B16 Melanoma; 0.60 mg/kg/injection i.p. Days 1, 5, 9): Toxic | zone of inhibition at 10 µg/mL (Proteus vulgaris; 10 μg/ml): 0 mm | zone of inhibition at 100 µg/mL (Proteus vulgaris; 100 μg/ml): 0 mm | zone of inhibition at 500 µg/mL (Proteus vulgaris; 500 μg/ml): 0 mm | zone of inhibition at 500 µg/mL (Branhamella catarrahalis): 30 mm | zone of inhibition at 10 µg/mL (Staphylococcus aureus; PD 02482, PAS medium): 0 mm | zone of inhibition at 500 µg/mL (Staphylococcus aureus; PD 02482, PAS medium): 16 mm | zone of inhibition at 10 µg/mL (Staphylococcus aureus; PD 5045, AM-9 medium): 0 mm | zone of inhibition at 100 µg/mL (Staphylococcus aureus; PD 5045, AM-9 medium): 17 mm | zone of inhibition at 500 µg/mL (Staphylococcus aureus; PD 5045, AM-9 medium): 22 mm | zone of inhibition at 10 µg/mL (Staphylococcus aureus; PD 5045, AM-10 medium): 0 mm | zone of inhibition at 100 µg/mL (Staphylococcus aureus; PD 5045, AM-10 medium): 19 mm | zone of inhibition at 500 µg/mL (Staphylococcus aureus; PD 5045, AM-10 medium): 22 mm | zone of inhibition at 500 µg/mL (Alcaligenes viscolactis): 19 mm | zone of inhibition at 10 µg/mL (Xanthomonas phaseoli; 10 μg/ml): 0 mm | zone of inhibition at 100 µg/mL (Xanthomonas phaseoli; 100 μg/ml): 0 mm | zone of inhibition at 500 µg/mL (Xanthomonas phaseoli; 500 μg/ml): 0 mm | zone of inhibition at 10 µg/mL (Bacillus subtilis; 16 h, PD 04969, #169 medium, 10 μg/ml, read-out: Diameter of Inhibition Zone): 0 mm | zone of inhibition at 100 µg/mL (Bacillus subtilis; ATCC6633, 16 h, read-out: Diameter of Inhibition Zone, ATCC 6633, #169 medium, 100 μg/ml): 16 mm | zone of inhibition at 10 µg/mL (Bacillus subtilis; ATCC6633, 16 h, read-out: Diameter of Inhibition Zone, ATCC 6633, Mycin medium, 10 μg/ml): 0 mm | zone of inhibition at 100 µg/mL (Bacillus subtilis; ATCC6633, 16 h, read-out: Diameter of Inhibition Zone, ATCC 6633, Mycin medium, 100 μg/ml): 0 mm | zone of inhibition at 10 µg/mL (Micrococcus luteus; 10 μg/ml): 0 mm | zone of inhibition at 100 µg/mL (Micrococcus luteus; 100 μg/ml): 0 mm | remaining at 730 h (physchem; 95% ethanol): 100% | remaining at 3650 h (physchem; 95% ethanol): 100% | remaining at 3650 h (physchem; abs. ethanol): 100% | remaining at 730 h (physchem; absolute ethanol): 100% | remaining at 730 h (physchem; dimethylacetamide): 95% | remaining at 730 h (physchem; dimethylsulfoxide): 93% | remaining at 730 h (physchem; propylene glycol): 100% | remaining at 3650 h (physchem; propylene glycol): 100% | % T/C ([5]; 0.125 mg/kg/injection i.p. Days 2, 6, 10, then weekly, Day 24): 14% | % T/C ([5]; 0.125 mg/kg/injection i.p. Days 2, 6, 10, then weekly, Day 35, less than 40 considered active): 22% | % T/C ([5]; 0.25 mg/kg/injection i.p. Days 2, 6, 10, then weekly, Day 24): 15% | % T/C ([5]; 0.25 mg/kg/injection i.p. Days 2, 6, 10, then weekly, Day 35, less than 40 considered active): 9% | % T/C ([5]; 0.50 mg/kg/injection i.p. Days 2, 6, 10, then weekly, Day 24): 0% | % T/C ([5]; 0.50 mg/kg/injection i.p. Days 2, 6, 10, then weekly, Day 35, less than 40 considered active): 0% | % T/C (P388 leukemia; 12.5 μg/kg/injection, Days 1-5, Test 1): 118% | % T/C (P388 leukemia; 25 μg/kg/injection, Days 1-5, Test 1): 127% | % T/C (P388 leukemia; 100 μg/kg/injection, Days 1-5, Test 1): Toxic | % T/C (P388 leukemia; 100 μg/kg/injection, Days 1-5, Test 2): Toxic

CCC(C=CC1OC(=O)C=CC1C)=CC(C)CC=CC(C)=CC(C)C(=O)C(C)C(O)C(C)CC(C)=CC(=O)O (stereo not drawn) [CL-1957A triethylammonium salt]
solubility in water [1]: soluble in water

CCC(C=CC1OC(=O)C=CC1C)=CC(C)CC=CC(C)=CC(C)C(=O)C(C)C(O)C(C)CC(C)=CC(=O)O [N-methyl-D-glucamine salt]
solubility in water [1]: soluble in water
